Measurements published in patent US10646521B2, “Microbiota composition, as a marker of responsiveness to chemotherapy, and use of microbial modulators (pre-, pro- or synbiotics) for improving the efficacy of a cancer treatment” (INSTITUT GUSTAVE ROUSSY, priority 2013, dated 2020).
Values joined by “and” are separate entries in the source; they are usually repeats but may differ in a detail not shown here. Identical values can stand only once.

What was measured:
[1] = test system: Lysozyme M and RegIIIγ transcription; conditions: duodenum, 18 hours post-CTX
Experimental: Lamina propria cells were isolated from duodenum, ileum and colon 18 h post CTX, and total RNA extraction and genomic DNA removal were performed with the RNeasy Mini Kit (Qiagen, Hilden, Germany), following the manufacturer's instructions. Total RNA extraction and genomic DNA removal of ilea or duodena were performed with the RNeasy Mini Kit (Qiagen, Hilden, Germany), following the manufacturer's instructions. Total RNA was then reverse transcribed into cDNA with the SuperScript III Reverse Transcriptase and the RNaseOUT™ Recombinant Ribonuclease Inhibitor (Life Technologies, Saint Aubin, France), in the presence of random primers (Promega, Charbonnieres, France) and the Deoxynucleoside Triphosphate Set, PCR grade (Roche Diagnostics, Meylan, France). Expression of RegIIIγ (Mm00441127_m1) and LysM (Mm01612741_m1)-related genes was analyzed with TaqMan® Gene Expression Assays using the Universal Master Mix II on a StepOnePlus™ Real-Time PCR System (Life Technologies, France). Quantitative RT-PCR data were invariably normalized to the expression levels of the housekeeping gene peptidylprolyl isomerase A (Ppia) by means of the 2^−ΔCt method.

[2] = 18 h post CTX
Experimental: Gut barrier integrity was assessed by permeability to FITC-dextran (4 kDa, Sigma Aldrich). Fourteen hours after i.p. injection with NaCl or CTX at 100 or 200 mg/kg, mice were fasted for 4 hours and then orally fed with FITC-dextran at 0.6 mg/g body weight (80 mg/ml in NaCl, 18 h after NaCl/CTX treatment). After 3 to 4 h, the mice were euthanized and exsanguinated by cardiac puncture. Plasma FITC levels were subsequently determined using a fluorescence spectrophotometer (λex/λem=485/535 nm).

[3] = test system: memory CD4+ T cells; conditions: 11 patients, after metronomic CTX
Experimental: Ex vivo restimulation assays using patients' autologous monocytes loaded with defined bacteria for 3 hours, neutralized with antibiotics, then cultured in GM-CSF+IL-4 (to differentiate into DC) and incubated for 3 days with CD4^+CD45RO^+ T cells (at a 1:2 ratio) purified from autologous blood at various time points (Day 0: before CTX, Day 12-46: after CTX, NSCLC: non small cell lung cancer). A. Cytokine release (IFNγ, TNF, IL-10) was monitored using ELISA. […] C. […] B-D show the cytokine levels in the 40 h supernatants of 250.000 memory CD4^+ T cells for each individual patient pre- and post-CTX administration.
The responses that were monitored included those against enterococci (E. hirae and E. faecalis, both immunogenic in mice receiving CTX), lactobacilli (L. johnsonii and the less relevant L. plantarum), as well as against E. coli.

[4] = test system: commensal bacteria; assay type: in vivo, mice
Experimental: Mesenteric lymph nodes and spleens were aseptically removed, smashed in PBS and plated onto COS agar plates (BioMérieux), for aerobic and anaerobic growth. After 48 h of culture, single colonies were isolated and stocked in glycerol at −80° C.
Serial dilutions of feces from naïve mice or tumor bearers treated with NaCl or CTX, vancomycin or broad spectrum antibiotics (ATB) (ampicillin+streptomycin+colistin), were plated onto COS agar plates and after 48 h, single colonies were isolated and Gram staining was performed. The identification of specific bacteria was accomplished through the combination of morphological tests and the analysis through VITEK® automated system (BioMérieux, France) and verified in mass spectrometry (MALDI-TOF, see below) performed at Pasteur Institute, Paris, France.

[5] = test system: small intestine epithelium; conditions: mouse, in vivo
Experimental: The whole small intestine (duodenum, jejunum and ileum) was removed, cleaned from fecal content and fixed in 4% of PFA for 1 h. Re-hydration of the tissue was performed in 15% sucrose for 1 h and in 30% sucrose overnight. Depending on the experiment, the small intestine was entirely rolled, or cut into small pieces, then embedded in optimum cutting temperature (OCT) compound (Sakura), snap frozen and longitudinal or transversal […] were prepared.
For histological analyses, the longitudinal sections were counterstained with hematoxilin and eosin. For the histological quantitative analyses, inflammatory foci, altered villi and the thickness of lamina propria were scored for each section, while the number of goblet cells was counted for each villus. […] Then, a rabbit polyclonal antibody against the lysozyme protein (1:500 for 1 h, Thermo Scientific) and ALEXA FLUOR 488 Fragment of goat anti-rabbit IgG (1:300 for 1 h, Molecular Probes) were used. All steps were performed at room temperature. Lysozyme-positive areas were quantified on mosaic images using the Histolab software (Microvision Instruments). The quantification of Paneth cells was performed measuring the average area of the Lysozyme-positive clusters (group of Paneth cells) as well as the emission/μm^2 of those clusters (not shown).

[6] = test system: CBir1 TCR Tg CD4+ T cells; conditions: mouse, in vivo
Experimental: CD4^+ T cells were isolated from B6.CBir1 TCR Tg mice using anti-mouse CD4 magnetic beads. Briefly, splenic cells were washed twice and incubated with anti-CD4 magnetic beads at 4° C. for 30 min and then separated by magnetic field. When checked by flow cytometry, over 95% of the cells were CD4^+ T cells. One million CBir1 Tg T cells (CD45.1^+) were adoptively transferred i.v. into CTX or NaCl treated-naïve congenic (CD45.2^+) mice two days after chemotherapy and spleens were harvested at day 5-7 post-transfer for flow cytometry analyses and ex vivo splenocyte restimulations. Flow cytometry analyses gated on CD45.1^+ cells to appreciate percentages of intracellular IL-17^+ or IFNg^+ cells after PMA/ionomycin 5 h restimulation in the presence of monensin.

[7] = test system: splenic CD4+ T cells; conditions: mouse, in vivo
[8] = test system: gut microbiota; conditions: NOD1-/-xNOD2-/- naive mice, CTX compared with PBS, seven days
[9] = test system: small intestine mucosal microbiota; conditions: mouse, in vivo
[10] = test system: MCA205 sarcomas; assay type: in vivo, C57BL/6 mice; conditions: mouse, in vivo
[11] = test system: splenocytes; test: TCR cross-linking of splenocytes, IL-17 and IFNγ ELISA; assay type: in vivo, mice
[12] = test system: bacterial groups associated with small intestine mucosa
[13] = test system: lamina propria cells of the small intestine; conditions: 7 days post-CTX
[14] = test system: splenic pTh17 cells; test: Flow cytometry of splenic pTh17 / TH1 / Tc1 cells
Experimental: For cross-linking experiment, 2×10^5 total splenocytes per well (after red cell lysis) were incubated in MaxiSorp plates (Nunc) precoated with anti-CD3ε mAb (145-2C11) (0.5 μg per well; eBioscience) and/or anti-CD28 mAb (37.51) (2 μg/ml; BD). The supernatants were assayed at 48 h by ELISA for mouse IL-17A (eBioscience) and IFNγ (BD). […] For intracellular, cells were incubated for 4 h at 37° C. with 50 ng/ml of PMA, 1 μg/ml of ionomycin and BD Golgi STOP™. After membrane staining, cells were stained with anti-IL-17A, IFNγ, T-bet and RORγt using eBioscience FoxP3/Transcription factor staining buffer set.

[15] = test system: tumor; test: Effects of ATB regimen on the efficacy of CTX (tumor outgrowth); assay type: in vivo, mice; conditions: ATB regimen 15 days prior to tumor inoculation
Experimental: Distinct ATB regimen (Zhang Y et al. Toxicology and Applied Pharmacology 277 (2014) 138-145) were administered for 15 days prior to tumor inoculation and CTX therapy every other 13 days. Tumor outgrowth was monitored with a caliper twice a week. […] Each experiment contains several groups of 5 mice. *Anova test: p<0.05.

[16] = test system: gut microbiota; conditions: Zhang Y et al., 2014; cited from earlier work

In the case of `O=P1(N(CCCl)CCCl)NCCCO1` (centres unmarked) [CTX, cyclophosphamide], the “expression of the antibacterial enzyme lysozyme” value [1] is reported as “upregulated”, the “intestinal permeability (orally administered FITC-dextran detectable in blood)” value [2] is reported as “increase” and the “patients developing memory Th1 responses against E. coli” value [3] is reported as 18%. For the same compound, the “patients developing memory Th1 responses against L. johnsonii” value [3] was 18%, the “patients developing memory Th1 responses against enterococci” value [3] was 54% and the “patients mounting a cellular immune response against L. plantarum” value [3] was 9%. The “Lactobacillus johnsonii cultured from lymphoid organs” value ([4]; 48 h post therapy) was > 40 % cases, the “mice with translocation of commensal bacteria into mesenteric lymph nodes and spleens” value ([4]; 48 h post-CTX) was > 50 % mice and the “bacterial translocation (colonies from spleens, anaerobic conditions) in NOD1xNOD2-/-” value ([4]; 48 hrs post-CTX) was “enhanced”. For the same compound, the “inflammatory status of the gut epithelial barrier (histology)” value [5] was “shortening of small intestinal villi, discontinuities of the epithelial barrier, interstitial edema and focal accumulation of mononuclear cells in the lamina propria”, the “immune responses against commensal bacteria (CBir1 Tg T cells)” value [6] was “induced TCR-restricted, antigen specific immune responses against commensal bacteria” and the “mice with Th1 memory responses against L. johnsonii” value [7] was 50 % of mice. The “Clostridiaceae in the small intestines” value [8] was “overrepresentation”, the “Erysipelotrichaceae in SI” value [8] was “relative loss” and the Lachnospiraceae in feces [8] was “relative loss”. For the same compound, the “Porphyromonadaceae (mainly Barnesiella) in the stool” value [8] was “overrepresentation”, the “bacterial species/groups from the Firmicutes phylum in mucosa” value [9] was “reduction” and the “dysbiosis at early time points” value [9] was “failed to cause a major dysbiosis”. For the same compound, the “microbial composition of small intestine and caecum” value [9] was “significantly altered the microbial composition of the small intestine (but not of the caecum)”, the “proportion of Spirochaetes phylum” value [9] was “reduction” and the “relative abundance of the Treponema genus” value [9] was 0%. The “relative abundance: Butyrate-producing bacterium M62/1 (AY305309)” value [9] was 0.07% and 0.06%, the “relative abundance: Butyrate-producing bacterium SM4/1 (AY305314)” value [9] was 0.21% and 0.20% and the “relative abundance: Clostridium sp ASF502 (AF157053)” value [9] was 0.01% and 0.00%. For the same compound, the “relative abundance: Clostridium sp. A9 (DQ789119)” value [9] was 0.23% and 0.27%, the “relative abundance: Clostridium sp. Clone-33 (AB622843)” value [9] was 0.02% and 0.00% and the “relative abundance: Clostridium sp. Clone-40 (AB622844)” value [9] was 0.05% and 0.02%. For the same compound, the “relative abundance: Clostridium sp. Clone-49 (AB622849)” value [9] was 0.07% and 0.09%, the “relative abundance: Clostridium sp. Culture-41 (AB622820)” value [9] was 0.10% and 0.08% and the “relative abundance: Clostridium sp. Culture-54 (AB622823)” value [9] was 0.03% and 0.04%. For the same compound, the “relative abundance: Coprococcus catus; L8 (AB361624)” value [9] was 0.03%, the “relative abundance: Lachnospiraceae bacterium 14-2 (DQ789124)” value [9] was 0.05% and 0.02% and the “relative abundance: Lactobacillus reuteri; LU3 (AY735406)” value [9] was 0.24% and 0.14%. The “relative abundance: Roseburia faecis (T); M7211 (AY305310)” value [9] was 0.35% and 0.41%, the “relative abundance: Roseburia intestinalis; XB6B4 (AM055815)” value [9] was 0.02% and 0.00% and the “relative abundance: Rumen bacterium NK4A66 (GU124467)” value [9] was 0.07% and 0.10%. The “relative abundance: Tannerella forsythia; OB071 (JN713185)” value [9] was 0.02%, the “antitumor effects against MCA205 sarcomas, GF versus SPF mice” value [10] was “reduced in GF compared with SPF mice” and the “immune-dependent anti-sarcoma effects in NOD1-/-xNOD2-/- mice” value [10] was “significantly enhanced”. For the same compound, the “immune-dependent anti-sarcoma effects in single knock out mice (NOD1 or NOD2 or RIP2 or CARD15) compared with WT” value [10] was “not ameliorated”, the “polarization of splenic CD4+ T cells towards Th1 and Th17 pattern” value ([11]; day 7 after treatment) was “induced the polarization” and the “increase of ex vivo IL-17 release by TCR-stimulated splenocytes” value ([11]; germ-free (GF) mice) was “failed to do so”. The “ex vivo IL-17 release by TCR-stimulated splenocytes” value ([11]; specific pathogen-free (SPF) mice) was “increased”, the “relative amounts of SFB and TM7 or Clostridium group XIV” value ([12]; day 7 post-CTX (not shown)) was “No CTX-specific modulations” and the “abundance of lactobacilli and enterococci” value ([12]; small intestine mucosa, 7 days post-CTX) was “reduction”. The “bacterial counts of the Clostridium leptum” value ([12]; tumor bearers, 7 days post-CTX) was “not affected”, the “total bacterial load of the small intestine” value ([12]; tumor bearers, 7 days post-CTX) was “not affected” and the “frequencies of CD103+CD11b+ dendritic cells in lamina propria of the small intestine” value [13] was “significantly decreased”. The “frequencies of TCRαβ+CD3+ T cells expressing RORγt in lamina propria of the small intestine” value [13] was “significantly decreased”, the “frequency of pathogenic Th17 (pTh17) cells within the spleen” value ([14]; 7 days after treatment) was “increased” and the “priming of splenic pTH17 cells in NOD2-/- mice” value ([14]; following CTX administration) was “augmented”.

For `O=C(O)c1cn(C2CC2)c2cc(N3CCNCC3)c(F)cc2c1=O` [cifloxacin], the “effect on the CTX-induced antitumor effects” value [15] is listed as “not efficient” and the “Bacteroidetes in gut microbiota” value [16] is listed as “marked suppression”.
